Among the data in PubChem BioAssay AID489024 (Sanford-Burnham Center for Chemical Genomics, 2010) are EC50 values, retold here.

The EC50 is the midpoint of the concentration-response curve.

The source made the active and inactive calls.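 The calls were made as follows: active = compounds whose mean EC50, the dose giving half the maximal reporter activation, is at or below a set limit; inactive = the rest.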

This experiment concerns the target CHO-CHOP luciferase reporter, UPR activation, luminescence. Description: activators of PERK-eIF2a-CHOP UPR arm, confirmation, CHO-CHOP cells, luciferase luminescence (AID 489024).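 Also: compounds added alone to reporter cells with no tunicamycin stress co-treatment.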
Consider `Cc1cc(N/N=C/c2ccccc2[N+](=O)[O-])nc(-n2nc(C)cc2C)n1`, for which the EC50 was 7.44 µM.

For `CC(C)N1C/C(=C/c2ccsc2)C(=O)/C(=C/c2ccsc2)C1`, the concentration giving a half-maximal response (EC50) is 7.08 µM.

Turning to `CCc1ccc2c(c1)C1(NN=C(c3ccccc3)S1)C(=O)N2` (stereo unspecified), the EC50 is 3.36 µM.

Take `Cc1nc([N+](=O)[O-])c(Br)n1CC(=O)c1ccc(Br)cc1`: the EC50 was > 80 µM (inactive).

Consider `COc1cc2nc(NC(=O)c3ccc(Cl)cc3)sc(=O)c2cc1OC`, for which the EC50 result is “inactive”.

As for `Cc1ccc(N2C(=O)NC(=O)/C(=C/C=C/c3ccco3)C2=O)cc1`, the EC50 is 11.5 µM.

In the case of `O=C(c1ccc(Cl)cc1)C(CN1CCCC1)c1ccccc1` (stereo unspecified), the half-maximal effective concentration (EC50) is 14.3 µM.

Turning to `O=C(Oc1c(CN2CCOCC2)cc(Cl)c2cccnc12)c1ccccc1F`, the EC50 was 18.2 µM.

As for `Cc1ccc(Sc2ccc(/C=C3/C(=O)NN(c4ccccc4)C3=O)o2)cc1`, the EC50 result was “inactive”.

For `O=C(N/N=C/c1ccccn1)c1cc(-c2ccccc2)nc2ccccc12`, the EC50 was 5.91 µM.

For `Cc1ccc(-c2csc3ncnc(Sc4nnc(CN5CCCCCC5=O)o4)c23)cc1`, the EC50 is 17.3 µM.

On to `O=C(Nc1ccc(N2CCOCC2)cc1)c1ccc([N+](=O)[O-])o1`, for which the half-maximal effective concentration (EC50) was 4.64 µM.

As to `COc1cccc2sc(N3CCN(c4nc5ccccc5s4)CC3)nc12`, the EC50 was 13.8 µM.

`CC(C)N1C(=O)/C(=C/C=C/c2ccco2)C(=O)N(Cc2ccco2)C1=O`: the EC50 was 8.46 µM.

Consider `COc1ccc(/C=C/C(=O)c2ccc([N+](=O)[O-])o2)cc1`, for which the concentration for a half-maximal effect (EC50) is 6.65 µM.

Regarding `Cc1ccc(C(C[N+](=O)[O-])n2nc(C)cc2C)cc1` (stereo unspecified), the EC50 was 9.75 µM.

Consider `CCc1cc(C(=O)c2ccc(C)cc2)c(NC(=O)CCl)s1`, for which the concentration for a half-maximal effect (EC50) is 13.5 µM.

`O=C(N/N=C/c1ccc(O)c(O)c1)NC12CC3CC(CC(C3)C1)C2`: the half-maximal effective concentration (EC50) is 3.34 µM.

As to `C=CCNC(=S)N/N=C(\C)c1ccccn1`, the EC50 was 2.5 µM.

With `Cc1cc(-n2c(C)cc(C(=O)CCl)c2C)no1`, the EC50 is 7.75 µM.

With `O=C(/C=C/c1cccnc1)c1ccc(NC(=O)c2cccc(Br)c2)cc1`, the EC50 entry was “inactive”.

As to `C=CCN=c1scc(-c2ccco2)n1/N=C/c1ccc(O)c(O)c1O`, the EC50 result is “inactive”.

On to `CCCN1C/C(=C/c2ccc3c(c2)OCO3)C(=O)/C(=C/c2ccc3c(c2)OCO3)C1`, for which the EC50 was 7.78 µM.

For the compound `COc1cccc2sc(Nc3nnc(-c4cccs4)o3)nc12`, the EC50 was 6.83 µM.

On to `COc1cc(/C=C/[N+](=O)[O-])ccc1O`, for which the EC50 is > 80 µM (inactive).

With `CC(C)(C)C(=O)OCc1nc(-c2ccc(O)c(O)c2)cs1`, the concentration for a half-maximal effect (EC50) is 1.38 µM.

For the compound `CCOC(=O)c1c(-c2ccc(-c3ccccc3)cc2)csc1NC(=O)CNCCN(C)C`, the EC50 was 7.71 µM.

As for `CCOC(=O)c1sc(NC(=S)NC(=O)c2ccccc2)c(C(=O)OCC)c1C`, the EC50 was > 80 µM (inactive).

On to `O=C(Nc1ccc(S(=O)(=O)N2CCOCC2)cc1)c1ccc([N+](=O)[O-])o1`, for which the EC50 is 0.98 µM.

In the case of `Cc1nn(-c2ccccc2)c(C)c1/C=N/NC(=O)CSc1nc2ccccc2c(=O)n1-c1ccc(Br)cc1`, the EC50 was 9.85 µM.

In the case of `Nc1nnnn1/N=C/C(Br)=C/c1ccccc1`, the EC50 is 2.22 µM.

`FC(F)(F)c1nnc(-c2ccccc2)nc1Sc1ccccc1`: the EC50 was 8.09 µM.

Consider `Cc1cccc(Nc2nc3c(S(=O)(=O)c4ccccc4)nnn3c3ccccc23)c1C`, for which the EC50 result is “inactive”.

As for `CCOC(=O)CSc1cccc2cccnc12`, the concentration giving a half-maximal response (EC50) is 11.4 µM.

Take `O=c1[nH]c(=S)n(C2CC2)c(O)c1C=Nc1cccc(C(F)(F)F)c1`: the EC50 is > 80 µM (inactive).

Take `Cc1ccc2nc(-c3ccc(NC(=S)NC4CC(C)(C)NC(C)(C)C4)cc3)sc2c1`: the half-maximal effective concentration (EC50) was 6.95 µM.

As for `CCCOc1ccc(N2C(=O)CC(N(O)c3ccccc3)C2=O)cc1` (stereo unspecified), the EC50 was 7.23 µM.

On to `Cc1ccc2nc(-c3ccc(O)c(O)c3)cn2c1`, for which the EC50 was 3.6 µM.

As for `Oc1ccc(/C=N/Nc2cc(N3CCCC3)nc(N3CCCC3)n2)cc1O`, the EC50 was 13.2 µM.

On to `Cc1cccc(/C=C/C(=O)c2ccc([N+](=O)[O-])o2)c1`, for which the EC50 was 7.44 µM.

As for `CC(C)(C)N1CSC(=S)N(Cc2ccccc2)C1`, the EC50 was 10.2 µM.

In the case of `C=C1C(=O)C=C[C@]2(C)C[C@@H]3OC(=O)[C@](C)(O)[C@H]3C[C@@H]12`, the concentration giving a half-maximal response (EC50) was 12.7 µM.

On to `CC1(C)CC(=O)C2=C(C1)Oc1nc3ccccc3cc1C2C(C#N)C#N` (stereo unspecified), for which the EC50 is > 80 µM (inactive).

For the compound `CC(=O)c1ccc(NC(=O)COC(=O)c2ccccc2N=Nc2ccc(N(C)C)cc2)cc1`, the EC50 was > 80 µM (inactive).

As for `COc1cc(SC#N)ccc1N=Cc1c(C)[nH]n(-c2ccc(C)c(C)c2)c1=O`, the concentration giving a half-maximal response (EC50) is 12.8 µM.

For `Nc1c(C(=O)Nc2ccc(S(=O)(=O)N3CCCC3)cc2)sc2nc3ccc(OC(F)(F)F)cc3cc12`, the EC50 is > 80 µM (inactive).

With `Cc1cc(C(=O)CCl)c(C)n1CCc1ccccc1`, the concentration for a half-maximal effect (EC50) was 7.91 µM.

Consider `CS(=O)(=O)c1nc(-c2ccc(Br)cc2)cc(-c2ccccc2)c1C#N`, for which the EC50 was 5.12 µM.

As for `O=C(/C=C/c1ccco1)NC(=S)Nc1ccc(O)c(-c2nc3ccccc3s2)c1`, the concentration for a half-maximal effect (EC50) was 11.8 µM.

Turning to `Oc1ccc2ccccc2c1N=Nc1ccccn1`, the EC50 is 8.55 µM.

Take `CCOC(=O)C1=C(CCl)NC(=O)NC1c1ccc2c(c1)OCO2` (stereo unspecified): the EC50 was > 80 µM (inactive).

Turning to `Oc1c(N=Nc2ccccn2)ccc2ccccc12`, the EC50 is 6.46 µM.

Take `COc1c(Cl)cc(Cl)cc1/C=C/C(=O)c1ccc(NC(=O)c2cccs2)cc1`: the EC50 was 4.63 µM.

As for `CCOC(=O)C(=CNc1nc(-c2ccccc2)c(C(=O)Nc2ccc(-c3ccccc3)cc2)s1)C(=O)OCC`, the EC50 result was “inactive”.

On to `O=S(=O)(Nc1cccc2cccnc12)c1ccc(S(=O)(=O)N2CCCC2)cc1`, for which the EC50 was 13.9 µM.

As to `COc1cccc2sc(Nc3nc(-c4ccccn4)cs3)nc12`, the EC50 was 1.65 µM.

In the case of `COc1ccc(-c2ccc(-c3nc4c(c(=O)[nH]c(=O)n4Cc4ccccc4)n3C)o2)c([N+](=O)[O-])c1`, the EC50 was > 80 µM (inactive).

With `COc1cc(C(=O)Oc2c(CN3CCOCC3)cc(Cl)c3cccnc23)cc(OC)c1OC`, the EC50 result is “inactive”.

Regarding `Cc1ccc(N2CCN(c3ccc(NCc4nc5ccccc5n4C)cc3)CC2)cc1`, the EC50 entry was “inactive”.

With `CN1C(=O)NC(=O)/C(=C\C=C\c2ccccc2[N+](=O)[O-])C1=O`, the EC50 was 10.4 µM.

Take `C/C(=N\NC(=O)c1ccc(Cl)cc1)c1ccccn1`: the half-maximal effective concentration (EC50) is 8.06 µM.

On to `Cc1ccc(C)c(C(=O)Cn2ncc(Cl)c(Cl)c2=O)c1`, for which the EC50 was 10.8 µM.

Regarding `O=C(NCCc1ccccc1)c1coc(=O)c(Br)c1`, the EC50 is 7.83 µM.

Take `CCCCCCCCCCn1c2c(c(=N)c3c1CCC3)CCC2`: the EC50 is 14.1 µM.

`Nc1nc(CC(=O)CSc2ccc(Cl)cc2)nc(Nc2ccc(F)cc2)n1`: the EC50 result is “inactive”.

Take `CC1CCN(Cc2c(C(=O)N/N=C/c3ccc(C(C)(C)C)cc3)nnn2-c2nonc2N)CC1`: the EC50 was 8.4 µM.

With `COc1ccc(N=c2oc3c(OC)cccc3cc2C(=O)NCc2ccco2)cc1OC`, the EC50 is > 80 µM (inactive).

With `COc1ccc2c(c1OC)C(=O)OC2Nc1nc(-c2ccccc2)cs1` (stereo unspecified), the EC50 is > 80 µM (inactive).

As to `CCOC(=O)/C(=C\c1ccccc1)C(=O)c1cc(C(C)=O)c(Nc2ccccc2)s1`, the EC50 was 6.37 µM.

For the compound `COc1ccc(C2OC34CCCCC3C(C#N)(C#N)C2(C#N)C(=N)O4)cc1` (stereo unspecified), the EC50 is > 80 µM (inactive).

With `O=C(NCCc1ccc(F)cc1)c1coc(=O)c(Br)c1`, the concentration for a half-maximal effect (EC50) is 9.53 µM.

For `COC(=O)c1c(NC(=O)CC2Nc3ccccc3NC2=O)sc(C)c1C` (stereo unspecified), the EC50 result was “inactive”.

For the compound `COc1cc([C@H]2c3[nH]c4ccccc4c3C[C@H]3C(=O)N4[C@@H](c5cc(OC)c(OC)c(OC)c5)c5[nH]c6ccccc6c5C[C@H]4C(=O)N23)cc(OC)c1OC`, the half-maximal effective concentration (EC50) was 11.3 µM.

Turning to `Cc1cnc(NC(=O)c2cc(S(=O)(=O)N(C)C)ccc2N2CCCC2)s1`, the half-maximal effective concentration (EC50) was 6.42 µM.

For the compound `Cc1ccc(-c2nn3c(C)nnc3s2)cc1NC(=O)c1ccc(-c2ccc(Cl)cc2Cl)o1`, the 50% effective concentration (EC50) is 14 µM.

For `Oc1c(C(Nc2ccccn2)c2ccccn2)ccc2cccnc12` (stereo unspecified), the concentration giving a half-maximal response (EC50) was 12.3 µM.

Regarding `COc1ccc(CCNC(=O)c2coc(=O)c(Br)c2)cc1`, the EC50 was 7.26 µM.

As to `COc1cccc(/C=N/Nc2nc(Nc3ccccc3)nc(-n3nc(C)cc3C)n2)c1O`, the EC50 is 4.28 µM.

Take `Oc1c(CN2CCN(c3ccc(F)cc3)CC2)cc(Cl)c2cccnc12`: the EC50 was 14 µM.

For the compound `Cc1cc(C)nc(SCc2ccc(C(=O)N/N=C/c3cccc(O)c3O)cc2)n1`, the half-maximal effective concentration (EC50) was 10.1 µM.

Take `COc1ccc(/C=C/C(=O)Oc2ccc(C)cc2)cc1`: the EC50 entry was “inactive”.
